# Like-named read-outs stand apart in the source and are kept apart here.
# Assays:
# muscarinic receptor M5 = molecular target: T1, muscarinic receptor M5 (Homo sapiens, UniProt P08912); test: Muscarinic receptor subtype M5 binding assay, radioligand displacement; conditions: Ki values, receptor subtype M5, [3]H-methylscopolamine displacement, membranes from recombinant mammalian cell lines
# T1 construct: expressed in transfected cells
# T1 sequence (P08912 1-532): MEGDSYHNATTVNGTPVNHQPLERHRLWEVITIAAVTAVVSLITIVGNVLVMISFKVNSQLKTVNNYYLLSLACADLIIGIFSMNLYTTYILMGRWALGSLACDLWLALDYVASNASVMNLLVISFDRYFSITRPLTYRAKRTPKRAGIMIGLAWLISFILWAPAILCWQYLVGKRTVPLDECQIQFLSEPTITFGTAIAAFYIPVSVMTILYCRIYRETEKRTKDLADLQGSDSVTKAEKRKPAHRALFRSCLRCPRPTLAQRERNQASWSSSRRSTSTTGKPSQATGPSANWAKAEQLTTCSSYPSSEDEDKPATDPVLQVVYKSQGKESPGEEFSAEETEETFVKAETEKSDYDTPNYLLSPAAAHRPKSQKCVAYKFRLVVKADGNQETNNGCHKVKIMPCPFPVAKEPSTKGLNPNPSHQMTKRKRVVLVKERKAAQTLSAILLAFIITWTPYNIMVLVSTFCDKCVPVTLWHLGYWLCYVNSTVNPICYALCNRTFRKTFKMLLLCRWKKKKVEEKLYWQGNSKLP
# Experimental: (§1) Muscarinic receptor subtype M1-M5 binding assays were carried out. Briefly, [3]H-methylscopolamine was allowed to bind to membranes from various recombinant mammalian cell lines, each with an over-expression of a particular receptor subtype.
# (§2) Muscarinic receptor subtype M1-M5 binding assays were performed.
# [1] = Pharmacokinetics of inhaled quaternary ammonium salts, plasma levels; type: in vivo, Balb/c mice
# Experimental: Blood samples were taken from the mice in example II via cardiac puncture under isoflurane anesthesia at 2.5 minutes, 10 minutes, 30 minutes, 2 hours, 4 hours, 8 hours, or 12 hours after aerosol drug treatment.
# The samples were collected in tubes containing EDTA and centrifuged at 12000×g for four minutes. Plasma was removed and stored at −70° C. until assay.
# Plasma samples were extracted via a liquid/liquid extraction technique. […] Chromatographically, the analyte and the internal standard were resolved on a Phenomenex Phenyl-Hexyl column using an isocratic elution. The limit of quantitation was 24 pg/ml.
# muscarinic receptor M4 = molecular target: T2, muscarinic receptor M4 (Homo sapiens, UniProt P08173); test: Muscarinic receptor subtype M4 binding assay, radioligand displacement
# T2 construct: expressed in transfected cells
# T2 sequence (P08173 1-479): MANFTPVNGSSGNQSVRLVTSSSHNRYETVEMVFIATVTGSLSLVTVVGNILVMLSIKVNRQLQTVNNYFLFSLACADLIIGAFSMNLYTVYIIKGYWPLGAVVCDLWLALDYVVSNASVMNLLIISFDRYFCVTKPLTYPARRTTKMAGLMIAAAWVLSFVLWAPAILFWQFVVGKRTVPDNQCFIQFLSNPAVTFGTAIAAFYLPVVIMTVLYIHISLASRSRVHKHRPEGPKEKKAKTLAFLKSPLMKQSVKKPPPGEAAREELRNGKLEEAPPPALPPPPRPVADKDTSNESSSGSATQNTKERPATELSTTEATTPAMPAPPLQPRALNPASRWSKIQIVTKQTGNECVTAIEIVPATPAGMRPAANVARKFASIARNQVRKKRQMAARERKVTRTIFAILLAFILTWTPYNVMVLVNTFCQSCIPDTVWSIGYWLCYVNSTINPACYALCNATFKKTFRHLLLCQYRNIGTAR
# Experimental: as §1, §2
# muscarinic receptor M3 = molecular target: T3, muscarinic receptor M3 (Homo sapiens, UniProt P20309); test: Muscarinic receptor subtype M3 binding assay, radioligand displacement; conditions: Ki values, receptor subtype M3
# T3 construct: expressed in transfected cells
# T3 sequence (P20309 whole entry): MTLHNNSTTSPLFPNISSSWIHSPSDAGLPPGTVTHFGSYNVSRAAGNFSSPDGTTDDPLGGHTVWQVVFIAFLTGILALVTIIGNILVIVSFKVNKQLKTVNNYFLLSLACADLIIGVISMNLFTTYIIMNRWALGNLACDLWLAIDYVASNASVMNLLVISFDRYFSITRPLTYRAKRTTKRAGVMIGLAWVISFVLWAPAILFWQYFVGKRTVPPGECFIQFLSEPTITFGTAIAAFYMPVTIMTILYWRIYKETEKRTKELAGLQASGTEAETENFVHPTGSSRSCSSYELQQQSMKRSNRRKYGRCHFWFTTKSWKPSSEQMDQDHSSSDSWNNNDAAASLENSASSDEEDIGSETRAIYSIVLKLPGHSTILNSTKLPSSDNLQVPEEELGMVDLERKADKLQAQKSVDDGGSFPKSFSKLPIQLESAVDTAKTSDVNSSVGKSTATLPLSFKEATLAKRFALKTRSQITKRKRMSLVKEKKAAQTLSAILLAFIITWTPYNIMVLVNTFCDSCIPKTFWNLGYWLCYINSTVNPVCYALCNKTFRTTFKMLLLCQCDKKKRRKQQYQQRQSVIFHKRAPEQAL
# Experimental: as §1, §2
# [2] = tested on: methacholine-induced bronchoconstriction in Balb/c mice; test: Bronchodilatory effect of inhaled compounds, Example II (10 min to 48 h)
# Experimental: Female BALB/c mice, weight range 19-22 g, were obtained from Charles River Laboratories (Kingston, N.C.). They received food and water ad libitum.
# Compounds for aerosol administration were prepared in sterile Dulbecco's Phosphate Buffered Saline.
# Mice were placed in a carousel-style, nose only, exposure chamber and allowed to inhale aerosols for five minutes, using an ICN SPAG-2 nebulizer.
# Bronchoconstriction was induced in mice by administration of an 80 mg/ml methacholine (MC) aerosol into the plethysmograph chambers for 5 minutes. […] The average enhanced pause (lung resistance) was determined. In order to determine the baseline, saline aerosol (without methacholine) was also separately administered to the mice.
# muscarinic receptor M1 = molecular target: T4, muscarinic receptor M1 (Homo sapiens, UniProt P11229); test: Muscarinic receptor subtype M1 binding assay, radioligand displacement
# T4 construct: expressed in transfected cells
# T4 sequence (P11229 1-460): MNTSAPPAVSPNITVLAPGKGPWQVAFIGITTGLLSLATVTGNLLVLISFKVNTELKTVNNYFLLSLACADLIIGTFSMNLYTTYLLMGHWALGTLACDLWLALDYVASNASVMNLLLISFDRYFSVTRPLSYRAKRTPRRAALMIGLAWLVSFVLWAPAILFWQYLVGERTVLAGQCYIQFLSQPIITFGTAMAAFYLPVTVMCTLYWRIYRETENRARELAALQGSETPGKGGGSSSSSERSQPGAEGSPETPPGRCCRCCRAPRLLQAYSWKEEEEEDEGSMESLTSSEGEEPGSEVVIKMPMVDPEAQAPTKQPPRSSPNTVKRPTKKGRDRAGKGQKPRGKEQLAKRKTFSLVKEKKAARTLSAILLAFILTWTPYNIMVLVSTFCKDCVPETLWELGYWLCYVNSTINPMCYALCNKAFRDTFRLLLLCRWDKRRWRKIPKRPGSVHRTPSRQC
# Experimental: as §1, §2
# muscarinic receptor M2 = molecular target: T5, muscarinic receptor M2 (Homo sapiens, UniProt P08172); test: Muscarinic receptor subtype M2 binding assay, radioligand displacement
# T5 construct: expressed in transfected cells
# T5 sequence (P08172 1-466): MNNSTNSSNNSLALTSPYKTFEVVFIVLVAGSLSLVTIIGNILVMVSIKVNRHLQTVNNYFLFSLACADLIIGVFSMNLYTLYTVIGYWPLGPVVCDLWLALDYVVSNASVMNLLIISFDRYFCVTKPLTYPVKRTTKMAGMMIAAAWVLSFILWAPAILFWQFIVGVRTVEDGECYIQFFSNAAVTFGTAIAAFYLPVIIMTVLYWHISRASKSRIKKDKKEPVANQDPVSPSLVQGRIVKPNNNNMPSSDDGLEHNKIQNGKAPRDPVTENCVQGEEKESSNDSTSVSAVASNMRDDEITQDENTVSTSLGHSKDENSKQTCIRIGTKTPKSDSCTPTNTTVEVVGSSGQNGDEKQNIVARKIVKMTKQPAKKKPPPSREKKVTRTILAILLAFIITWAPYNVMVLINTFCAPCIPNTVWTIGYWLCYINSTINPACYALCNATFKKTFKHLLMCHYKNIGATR
# Experimental: as §1, §2
# [3] = Balb/c, mouse, plasma, inhaled, inhalation of 0.072 mg/ml, read-out: Plasma concentration ± std dev
# [4] = Balb/c, mouse, plasma, inhaled, inhalation of 0.144 mg/ml, read-out: Plasma concentration ± std dev
# [5] = Balb/c, mouse, plasma, inhaled, inhalation of 1.44 mg/ml, read-out: Plasma concentration ± std dev
smiles,measurement,setting,value
Cc1ccc(O)c([C@H](CC[N+](C)(C(C)C)C(C)C)c2ccccc2)c1.[I-] [Example 2],Ki,muscarinic receptor M5,250 pM
same,concentration at 2.5 min,[1]; [3],0.136 ± 0.038 ng/mL
same,concentration at 10 min,[1]; [3],0.09 ± 0.001 ng/mL
same,concentration at 30 min,[1]; [3],0.081 ± 0.008 ng/mL
same,concentration at 2 h,[1]; [3],0.041 ± 0.006 ng/mL
same,concentration at 4 h,[1]; [3],0.014 ± 0.001 ng/mL
same,concentration at 2.5 min,[1]; [4],0.264 ± 0.021 ng/mL
same,concentration at 10 min,[1]; [4],0.162 ± 0.011 ng/mL
same,concentration at 30 min,[1]; [4],0.112 ± 0.01 ng/mL
same,concentration at 2 h,[1]; [4],0.055 ± 0.007 ng/mL
same,concentration at 4 h,[1]; [4],0.04 ± 0.003 ng/mL
same,concentration at 8 h,[1]; [4],0.012 ± 0.001 ng/mL
same,concentration at 2.5 min,[1]; [5],2.68 ± 0.389 ng/mL
same,concentration at 10 min,[1]; [5],1.4 ± 0.163 ng/mL
same,concentration at 30 min,[1]; [5],1.12 ± 0.042 ng/mL
same,concentration at 2 h,[1]; [5],0.245 ± 0.003 ng/mL
same,concentration at 4 h,[1]; [5],0.157 ± 0.002 ng/mL
same,concentration at 8 h,[1]; [5],0.08 ± 0.002 ng/mL
same,concentration at 12 h,"[1]; Balb/c, mouse, plasma, inhaled, inhalation of 1.44 mg/ml, 12 h, read-out: Plasma concentration ± std dev",0.042 ± 0.002 ng/mL
same,systemic (plasma) exposure,[1]; after aerosol inhalation of 0.072-1.44 mg/ml,very low
same,Ki,muscarinic receptor M4,390 pM
same,Ki,muscarinic receptor M3,200 pM
same,"prevention of methacholine-induced bronchoconstriction, time following administration","[2]; inhalation of aerosol from 0.072 mg/ml solution, FIG. 3",8 h
same,"prevention of methacholine-induced bronchoconstriction, time following administration","[2]; inhalation of aerosol from 0.144 mg/ml solution, FIG. 2",24 h
same,"complete block of methacholine-induced bronchoconstriction, time following administration","[2]; inhalation of aerosol from 1.44 mg/ml solution, FIG. 1",36 h
same,Ki,muscarinic receptor M1,330 pM
same,Ki,muscarinic receptor M2,450 pM

# Source: patent US6890920B2, “Quaternary ammonium compounds” (Pharmacia & Upjohn Company, priority 1992, dated 2005)
